Laboratory results from US20240294478A1, “ANTI-CANCER COMPOUNDS AND METHODS OF USE” (YALE UNIVERSITY, priority 2021, published 2024).

Legend:
LN229 MGMT+ shPMS2 cells = test: Short-term viability assay, LN229 MGMT+ shPMS2; type: cell-based; details: Homo sapiens, LN-229, Table III, read-out: IC50 against LN229 cell lines, MGMT MMR−
Description: (§1) The activity of KL-50 in MGMT-LN229 cells engineered to lack expression of other key MMR proteins including MSH6, MLH1, PMS2, and MSH3 was also confirmed. Western blotting was performed in LN229 MGMT+/−cells with stable expression of shRNA targeting MSH6, MLH1, PMS2, or MSH3 to confirm depletion of the shRNA targets. In shMSH6 cells, there was reduced expression of MSH2, and in shMLH1 cells, there was loss of PMS2, due to destabilization in the setting of loss of their heterodimeric partners. GAPDH serves as loading control. […] Short-term viability assay curves for KL-50 in LN229 MGMT+/−, MMR+/shMSH6 cells. […] Short-term viability assay curves for KL-50 in LN229 MGMT+/−, MMR+/shMLH1 cells. […] Short-term viability assay curves for KL-50 in LN229 MGMT+/−, MMR+/shPMS2 cells. […] Short-term viability assay curves for KL-50 in LN229 MGMT+/−, MMR+/shMSH3 cells.
(§2) MMR Protein shRNA Knockdown. pGIPZ lentiviral shRNA vectors targeting MSH2, MSH6, MLH1, PMS2, and MSH3 were purchased from Horizon Discovery (Table IV). […]
(§3) Short-term Cell Viability Assay. […] Cells were imaged on a Cytation 3 imaging reader (BioTek) and quantified using CellProfiler software. For in vitro short-term growth delay experiments, IC50 values were determined from the nonlinear regression equation, [inhibitor] vs normalized response with variable slope.

LN229 MGMT− shPMS2 cells = test: Short-term viability assay, LN229 MGMT- shPMS2; type: cell-based, human; details: for IC50: Homo sapiens, LN-229, Table III, read-out: IC50 against LN229 cell lines, MGMT− MMR−; for MGMT− RI: Table III
Description: as §1
MMR Protein shRNA Knockdown. pGIPZ lentiviral shRNA vectors targeting MSH2, MSH6, MLH1, PMS2, and MSH3 were purchased from Horizon Discovery (Table IV). Lentiviral particles were produced in HEK293T cells via co-transfection with lentiviral shRNA plasmid, pCMV-VSV-G envelope plasmid (Addgene, #8454) and psPAX2 packaging plasmid (Addgene, #12260), using Lipofectamine 3000 Reagent (Invitrogen, L3000001) per manufacturer's protocol. Viral particles were harvested 48 h post-transfection and used to transduce LN229 MGMT+/−cells in the presence of 8 μg/mL polybrene. Selection of pooled cells with lentiviral expression was established with 1 μg/mL puromycin 48 h post-transduction for 3 to 4 days. Single cell cloning was performed by limiting dilution and protein knockdown was confirmed by western blotting.
(§4) Short-term Cell Viability Assay. Cells were seeded in 96-well plates at 1000 or 2000 cells/well and allowed to adhere at 23° C. for 60 min and then incubated overnight at 37° C. Cells were treated with indicated concentrations of compounds in triplicate for 4-6 days prior to fixation with 3.7% paraformaldehyde and nuclear staining with 1 μg/mL Hoechst 33342 dye. Cells were imaged on a Cytation 3 imaging reader (BioTek) and quantified using CellProfiler software. For in vitro short-term growth delay experiments, IC50 values were determined from the nonlinear regression equation, [inhibitor] vs normalized response with variable slope.

LN229 MGMT+ shMSH3 cells = test: Short-term viability assay, LN229 MGMT+ shMSH3; type: cell-based; details: Homo sapiens, LN-229, Table III, read-out: IC50 against LN229 cell lines, MGMT MMR−
Description: as §1, §2, §3

HCT116 MLH1−/− cells = test: Short-term viability assay, HCT116 MLH1-/- cells +/- O6BG; type: cell-based, human; details: with or without 10 μM O6BG pre-treatment
Description: FIG. 1B: Short-term viability assay curves for KL-50 in DLD1 MSH6-deficient cells pre-treated with 0.01% DMSO control (CTR) or 10 μM O^6BG (+O^6BG) for 1 h prior to KL-50 addition. […] Short-term viability assay curves for (FIG. 1E) KL-50 in HCT116 MLH1−/−cells or (FIG. 1F) HCT116 cells complemented with chromosome 3 carrying wildtype MLH1 (+Chr3) pre-treated with 0.01% DMSO control or 10 μM O^6BG (+O^6BG) for 1 h prior to KL-50 addition. […] For these figures, points, mean; error bars, SD; n>3 technical replicates.
as §4

[1] = system: genomic DNA isolated from LN229 MGMT−/MMR+ cells; test: Genomic DNA denaturing gel electrophoresis; type: cell-based, human; details: KL-50 200 μM
Description: Genomic DNA Denaturing Gel Electrophoresis. Cells were trypsinized, washed with 1×PBS, and stored at −80° C. prior to processing. Genomic DNA was extracted with the DNeasy Blood & Tissue Kit (Qiagen) per kit protocol. A 0.7% agarose gel was prepared in 100 mM NaCl-2 mM EDTA (pH 8) and soaked in 40 mM NaOH-1 mM EDTA running buffer for 2 h. Genomic DNA (400 ng/well) was then loaded in 1×BlueJuice loading buffer (Invitrogen) and subjected to electrophoresis at 2 V/cm for 30 min, followed by 3 V/cm for 2 h. The gel was neutralized in 150 mM NaCl-100 mM Tris (pH 7.4) for 30 min, twice, and then stained with 1×SYBR Gold in 150 mM NaCl-100 mM Tris (pH 7.4) for 90 min. Imaging was performed on a ChemiDoc XRS+ Molecular Imager (Bio-Rad).

[2] = system: ATR-CHK1 and ATM-CHK2 signaling axes in LN229 MGMT+/−, MMR+/− cells; test: Western blotting of CHK1 and CHK2 phosphorylation; type: cell-based, human; details: 20 μM, 24 or 48 h
Description: FIGS. 5A-5K: KL-50 activates DNA damage response pathways and cycle arrest in MGMT-cells, independent of MMR, and induces sensitivity in cells deficient in ICL or HR repair. […] Columns, mean; error bars, SD; n 5 technical replicates. FIGS. 5D-5K: KL-50 induces activation of the ATR-CHK1 and ATM-CHK2 signaling axes and delayed DNA repair foci formation in MGMT-deficient cells, independent of MMR status. […] Treatment with 1 μM doxorubicin for 24 h (Doxo) served as a positive control for p-CHK1 activation. […] Points, mean % cells with >10 foci; error bars, SD; n >5 technical replicates. […] Points, % cells with 10 foci, n>250 cells per condition.
A prior finding that the ATR-CHK1 signaling axis is activated in response to TMZ-induced replication stress in MGMT-deficient cells prompted analysis of the phosphorylation status of CHK1 and CHK2 in LN229 MGMT+/− and MMR+/−cells. […] Analysis of foci formation of the DDR factors phospho-SER139-H2AX (yH2AX), p53 binding protein 1 (53BP1), and phospho-SER33-RPA2 (pRPA) over the period of 2 to 48 h (FIGS. 5A-5C and FIGS. 5D-5I). […] However, these foci dissipate at later timepoints (72-96 h; FIGS. 5J-5K), and they are not associated with appreciable cellular toxicity (as shown earlier in FIGS. 2A and 2B).

Row | SMILES | IC50 (LN229 MGMT+ shPMS2 cells) [µM] | IC50 (LN229 MGMT− shPMS2 cells) [µM] | MGMT− RI (LN229 MGMT− shPMS2 cells) | IC50 (LN229 MGMT+ shMSH3 cells) [µM] | cytotoxicity in HCT116 MLH1-deficient cells (HCT116 MLH1−/− cells) | crosslinked genomic DNA (ICL induction) [1] | CHK1 and CHK2 phosphorylation [2]
1 | Cn1nnc2c(C(N)=O)ncn2c1=O [TMZ, 4-methyl-5-oxo-2,3,4,6,8-pentazabicyclo[4.3.0]nona-2,7,9-triene-9-carboxamide, reference compound] | 700 ± 58 | 921 ± 190 | 181 | 649 ± 32 | inactive | no evidence of ICL induction | only induced phospho-CHK1 and —CHK2 in MGMT−/MMR+cells
2 | NC(=O)c1ncn2c(=O)n(CCF)nnc12 [KL-50] | 215 ± 16 | 5.4 ± 0.3 | 0.4 | 328 ± 26 | induced selective tumor cell killing specifically in the setting of O^6BG-induced MGMT suppression | presence of crosslinked DNA | induced CHK1 and CHK2 phosphorylation in MGMT-cells regardless of MMR status
